Data on 4 compounds can be found in patent US20250380700A1, “HERBICIDAL COMBINATIONS AND A METHOD FOR CONTROLLING UNDESIRED VEGETATION” (UPL Mauritius Limited, priority 2022, published 2025).

This assay relates to weedy Glycine max. In words: Post-emergence herbicidal activity trial on weedy Glycine max (observed efficacy vs Colby expected efficacy). Type of assay: in vivo. The procedure: Methodology: Trials were conducted to evaluate the efficacy of the combination comprising L-glufosinate ammonium and additional herbicides on weedy Glycine max.
The soil used was sandy clay loam-sand: 68.0%; silt: 8.0%; clay: 24.0%.
All treatments were in 3 replications per treatment with a spray volume of about 150 L/ha.
The expected efficacy of a combination of L-glufosinate ammonium and the other herbicides was calculated using the well-established Colby method. Any difference between the observed and “expected” efficacy could be attributed to synergy between the two compounds.
In the Colby method, the expected (or predicted) response of a combination of herbicides is calculated by taking the product of the observed response for each individual component of the combination when applied alone, divided by 100, and subtracting this value from the sum of the observed response for each component when applied alone. An unexpected enhancement in efficacy of the combination is then determined by comparing the observed response of the combination to the expected (or predicted) response as calculated from the observed response of each individual component alone. If the observed response of the combination is greater than the expected (or predicted) response, or stated conversely, if the difference between the observed and expected response is greater than zero, then the combination is said to be synergistic or unexpectedly effective (Colby, S. R., Weeds, 1967(15), p. 20-22). The Colby method requires only a single dose of each herbicide applied alone and the mixture of both doses. The formula used to calculate the expected efficacy (EE) which was compared with the observed efficacy (OE) to determine the efficacy of the present disclosure is explained hereinbelow:
The expected efficacy for a combination of two active ingredients is as follows:
The expected efficacy for a combination of three active ingredients is as follows:
wherein, • A=Observed efficacy of active ingredient A at the same concentration as used in the mixture. • B=Observed efficacy of the active ingredient B at the same concentration as used in the mixture. • C=Observed efficacy of the active ingredient C at the same concentration as used in the mixture.

Turning to `O=C(O)COc1ccc(Cl)cc1Cl` [2,4-D], the “Observed efficacy (%) of 2,4-D (228 g a.i./ha)” value is reported as 50% (Example 3, Table 4, 3 DAA) and 60% (Example 3, Table 4, 7 DAA).

On to `CP(=O)(O)CC[C@H](N)C(=O)O.N` [L-glufosinate ammonium], for which the “Observed efficacy (%) of L-glufosinate ammonium (150 g a.i./ha)” value runs as follows: (Example 1, Table 2, 3 DAA, post-emergence) 65%; (Example 1, Table 2, 7 DAA, post-emergence) 65%; (Example 2, Table 3, 3 DAA) 50%; (Example 2, Table 3, 7 DAA) 65%; (Example 3, Table 4, 3 DAA) 50%; (Example 3, Table 4, 7 DAA) 75%.

Consider `CC(C)N(C)S(=O)(=O)NC(=O)c1cc(-n2c(=O)cc(C(F)(F)F)n(C)c2=O)c(F)cc1Cl` [Saflufenacil], for which the “Observed efficacy (%) of Saflufenacil (30 g a.i./ha)” value reads like this: (Example 1, Table 2, 3 DAA) 50%; (Example 1, Table 2, 7 DAA) 70%; (Example 2, Table 3, 3 DAA) 65%; (Example 2, Table 3, 7 DAA) 70%; (Example 3, Table 4, 3 DAA) 65%; (Example 3, Table 4, 7 DAA) 75%.

Consider `O=C(O)COc1nc(Cl)c(Cl)cc1Cl` [Triclopyr], for which the “Observed efficacy (%) of Triclopyr (228 g a.i./ha)” value (Example 2, Table 3, 3 DAA) is 75% and the “Observed efficacy (%) of Triclopyr (228 g a.i./ha)” value (Example 2, Table 3, 7 DAA) stood at 68%.
